Measured values: patent US20110039721A1, “METHOD FOR PREDICTION ABOUT CARCINOGENICITY OF SUBSTANCE IN RODENT” (Chemicals Evaluation and Research Institute, priority 2007, published 2011)

Assays:
[1] = tested on: rodent; details: in vivo; cited from earlier work
[2] = tested on: mRNA expressed from the genes (A) to (D) in rat liver; experiment: Behavior of genes (mRNA expression level, oligo-DNA microarray) in rat liver after 28-day oral administration; format: in vivo; details: rat liver, oral once daily 28 days; for Behavior of gene caused by administration of chemical substance, Gene No. 4846 / Behavior of gene caused by administration of chemical substance, Gene No. 4218 / Behavior of gene caused by administration of chemical substance, Gene No. 2026 / Behavior of gene caused by administration of chemical substance, Gene No. 6182 / Behavior of gene caused by administration of chemical substance, Gene No. 5600: (A); for Behavior of gene caused by administration of chemical substance, Gene No. 4846: Unigene Rn.144554, defined direction +; for Behavior of gene caused by administration of chemical substance, Gene No. 4218: Unigene Rn.167075, defined direction +, significant = 1.5 times or more or 1/1.5 or less of control; for Behavior of gene caused by administration of chemical substance, Gene No. 2026: Unigene Rn.167075, defined direction −; for Behavior of gene caused by administration of chemical substance, Gene No. 6182: Unigene Rn.5834, defined direction +; for Behavior of gene caused by administration of chemical substance, Gene No. 5600: Unigene Rn.9836, defined direction +; for Behavior of gene caused by administration of chemical substance, Gene No. 1494 / Behavior of gene caused by administration of chemical substance, Gene No. 2045 / Behavior of gene caused by administration of chemical substance, Gene No. 2203: (B); for Behavior of gene caused by administration of chemical substance, Gene No. 1494: Unigene Rn.1430, defined direction −; for Behavior of gene caused by administration of chemical substance, Gene No. 2045: Unigene Rn.19329, defined direction +; for Behavior of gene caused by administration of chemical substance, Gene No. 2203: Unigene Rn.21240, defined direction +; for Behavior of gene caused by administration of chemical substance, Gene No. 533 / Behavior of gene caused by administration of chemical substance, Gene No. 725 / Behavior of gene caused by administration of chemical substance, Gene No. 1163 / Behavior of gene caused by administration of chemical substance, Gene No. 4973 / Behavior of gene caused by administration of chemical substance, Gene No. 4095 / Behavior of gene caused by administration of chemical substance, Gene No. 1334 / Behavior of gene caused by administration of chemical substance, Gene No. 6620 / Behavior of gene caused by administration of chemical substance, Gene No. 6303 / Behavior of gene caused by administration of chemical substance, Gene No. 5878 / Behavior of gene caused by administration of chemical substance, Gene No. 1131 / Behavior of gene caused by administration of chemical substance, Gene No. 1562 / Behavior of gene caused by administration of chemical substance, Gene No. 1741 / Behavior of gene caused by administration of chemical substance, Gene No. 893 / Behavior of gene caused by administration of chemical substance, Gene No. 6026 / Behavior of gene caused by administration of chemical substance, Gene No. 154 / Behavior of gene caused by administration of chemical substance, Gene No. 1993 / Behavior of gene caused by administration of chemical substance, Gene No. 813 / Behavior of gene caused by administration of chemical substance, Gene No. 2494 / Behavior of gene caused by administration of chemical substance, Gene No. 2546 / Behavior of gene caused by administration of chemical substance, Gene No. 3776 / Behavior of gene caused by administration of chemical substance, Gene No. 3929 / Behavior of gene caused by administration of chemical substance, Gene No. 1119 / Behavior of gene caused by administration of chemical substance, Gene No. 6742 / Behavior of gene caused by administration of chemical substance, Gene No. 5634: (C); for Behavior of gene caused by administration of chemical substance, Gene No. 533: Unigene Rn.106184, defined direction +; for Behavior of gene caused by administration of chemical substance, Gene No. 725: Unigene Rn.108075, defined direction −; for Behavior of gene caused by administration of chemical substance, Gene No. 1163: Unigene Rn.11766, defined direction +; for Behavior of gene caused by administration of chemical substance, Gene No. 4973: Unigene Rn.118529, defined direction −; for Behavior of gene caused by administration of chemical substance, Gene No. 4095: Unigene Rn.119024, defined direction −; for Behavior of gene caused by administration of chemical substance, Gene No. 1334 / Behavior of gene caused by administration of chemical substance, Gene No. 6620: Unigene Rn.120914, defined direction +; for Behavior of gene caused by administration of chemical substance, Gene No. 6303: Unigene Rn.123063, defined direction −; for Behavior of gene caused by administration of chemical substance, Gene No. 5878: Unigene Rn.143213, defined direction −; for Behavior of gene caused by administration of chemical substance, Gene No. 1131: Unigene Rn.144946, defined direction −; for Behavior of gene caused by administration of chemical substance, Gene No. 1562: Unigene Rn.14744, defined direction −; for Behavior of gene caused by administration of chemical substance, Gene No. 1741: Unigene Rn.1647, defined direction −; for Behavior of gene caused by administration of chemical substance, Gene No. 893: Unigene Rn.164817, defined direction +; for Behavior of gene caused by administration of chemical substance, Gene No. 6026: Unigene Rn.167685, defined direction −; for Behavior of gene caused by administration of chemical substance, Gene No. 154: Unigene Rn.185941, defined direction −; for Behavior of gene caused by administration of chemical substance, Gene No. 1993: Unigene Rn.18728, defined direction −; for Behavior of gene caused by administration of chemical substance, Gene No. 813: Unigene Rn.201760, defined direction +; for Behavior of gene caused by administration of chemical substance, Gene No. 2494: Unigene Rn.23969, defined direction +; for Behavior of gene caused by administration of chemical substance, Gene No. 2546: Unigene Rn.24561, defined direction −; for Behavior of gene caused by administration of chemical substance, Gene No. 3776: Unigene Rn.43232, defined direction −; for Behavior of gene caused by administration of chemical substance, Gene No. 3929: Unigene Rn.4620, defined direction +; for Behavior of gene caused by administration of chemical substance, Gene No. 1119: Unigene Rn.9757, defined direction +; for Behavior of gene caused by administration of chemical substance, Gene No. 6742: Unigene Rn.9779, defined direction +; for Behavior of gene caused by administration of chemical substance, Gene No. 5634: Unigene Rn.9862, defined direction −; for Behavior of gene caused by administration of chemical substance, Gene No. 5726: (D), Unigene Rn.9939, defined direction −
How it was run: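 Groups of four male F344 SPF rats aged 5 weeks are gavaged once a day for 28 days with test chemical in solvent or with solvent alone at equal volume. Total RNA comes from liver taken on day 28. Fold change of 1.5 or 1/1.5 versus control, directionally consistent, defines significance.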

[3] = tested on: liver; details: in vivo; cited from earlier work

c1ccoc1 [TS028, Furan]
Carcinogenicity [1]: C+
Behavior of gene caused by administration of chemical substance, Gene No. 4846 [2]: +
Behavior of gene caused by administration of chemical substance, Gene No. 4218 [2]: +
Behavior of gene caused by administration of chemical substance, Gene No. 2026 [2]: +
Behavior of gene caused by administration of chemical substance, Gene No. 6182 [2]: +
Behavior of gene caused by administration of chemical substance, Gene No. 5600 [2]: +
Behavior of gene caused by administration of chemical substance, Gene No. 1494 [2]: +
Behavior of gene caused by administration of chemical substance, Gene No. 2045 [2]: −
Behavior of gene caused by administration of chemical substance, Gene No. 2203 [2]: −
Behavior of gene caused by administration of chemical substance, Gene No. 533 [2]: +
Behavior of gene caused by administration of chemical substance, Gene No. 725 [2]: −
Behavior of gene caused by administration of chemical substance, Gene No. 1163 [2]: −
Behavior of gene caused by administration of chemical substance, Gene No. 4973 [2]: +
Behavior of gene caused by administration of chemical substance, Gene No. 4095 [2]: +
Behavior of gene caused by administration of chemical substance, Gene No. 1334 [2]: −
Behavior of gene caused by administration of chemical substance, Gene No. 6620 [2]: −
Behavior of gene caused by administration of chemical substance, Gene No. 6303 [2]: +
Behavior of gene caused by administration of chemical substance, Gene No. 5878 [2]: +
Behavior of gene caused by administration of chemical substance, Gene No. 1131 [2]: −
Behavior of gene caused by administration of chemical substance, Gene No. 1562 [2]: +
Behavior of gene caused by administration of chemical substance, Gene No. 1741 [2]: +
Behavior of gene caused by administration of chemical substance, Gene No. 893 [2]: −
Behavior of gene caused by administration of chemical substance, Gene No. 6026 [2]: −
Behavior of gene caused by administration of chemical substance, Gene No. 154 [2]: +
Behavior of gene caused by administration of chemical substance, Gene No. 1993 [2]: +
Behavior of gene caused by administration of chemical substance, Gene No. 813 [2]: +
Behavior of gene caused by administration of chemical substance, Gene No. 2494 [2]: −
Behavior of gene caused by administration of chemical substance, Gene No. 2546 [2]: −
Behavior of gene caused by administration of chemical substance, Gene No. 3776 [2]: +
Behavior of gene caused by administration of chemical substance, Gene No. 3929 [2]: +
Behavior of gene caused by administration of chemical substance, Gene No. 1119 [2]: +
Behavior of gene caused by administration of chemical substance, Gene No. 6742 [2]: +
Behavior of gene caused by administration of chemical substance, Gene No. 5634 [2]: +
Behavior of gene caused by administration of chemical substance, Gene No. 5726 [2]: −
Liver carcinogenicity [3]: Cr+

CC(=N)S [TS030, Thioacetoamide]
Carcinogenicity [1]: C+
Behavior of gene caused by administration of chemical substance, Gene No. 4846 [2]: +
Behavior of gene caused by administration of chemical substance, Gene No. 4218 [2]: +
Behavior of gene caused by administration of chemical substance, Gene No. 2026 [2]: +
Behavior of gene caused by administration of chemical substance, Gene No. 6182 [2]: +
Behavior of gene caused by administration of chemical substance, Gene No. 5600 [2]: +
Behavior of gene caused by administration of chemical substance, Gene No. 1494 [2]: +
Behavior of gene caused by administration of chemical substance, Gene No. 2045 [2]: −
Behavior of gene caused by administration of chemical substance, Gene No. 2203 [2]: −
Behavior of gene caused by administration of chemical substance, Gene No. 533 [2]: +
Behavior of gene caused by administration of chemical substance, Gene No. 725 [2]: +
Behavior of gene caused by administration of chemical substance, Gene No. 1163 [2]: −
Behavior of gene caused by administration of chemical substance, Gene No. 4973 [2]: +
Behavior of gene caused by administration of chemical substance, Gene No. 4095 [2]: +
Behavior of gene caused by administration of chemical substance, Gene No. 1334 [2]: −
Behavior of gene caused by administration of chemical substance, Gene No. 6620 [2]: −
Behavior of gene caused by administration of chemical substance, Gene No. 6303 [2]: +
Behavior of gene caused by administration of chemical substance, Gene No. 5878 [2]: −
Behavior of gene caused by administration of chemical substance, Gene No. 1131 [2]: −
Behavior of gene caused by administration of chemical substance, Gene No. 1562 [2]: +
Behavior of gene caused by administration of chemical substance, Gene No. 1741 [2]: +
Behavior of gene caused by administration of chemical substance, Gene No. 893 [2]: +
Behavior of gene caused by administration of chemical substance, Gene No. 6026 [2]: −
Behavior of gene caused by administration of chemical substance, Gene No. 154 [2]: +
Behavior of gene caused by administration of chemical substance, Gene No. 1993 [2]: +
Behavior of gene caused by administration of chemical substance, Gene No. 813 [2]: +
Behavior of gene caused by administration of chemical substance, Gene No. 2494 [2]: +
Behavior of gene caused by administration of chemical substance, Gene No. 2546 [2]: −
Behavior of gene caused by administration of chemical substance, Gene No. 3776 [2]: +
Behavior of gene caused by administration of chemical substance, Gene No. 3929 [2]: −
Behavior of gene caused by administration of chemical substance, Gene No. 1119 [2]: −
Behavior of gene caused by administration of chemical substance, Gene No. 6742 [2]: −
Behavior of gene caused by administration of chemical substance, Gene No. 5634 [2]: −
Behavior of gene caused by administration of chemical substance, Gene No. 5726 [2]: +
Liver carcinogenicity [3]: Cr+
